These results are taken from US20120088827A1 (Profectus Biosciences, Inc., priority 2009, published 2012).

The subject of this assay is PGE2. The experiment in a line: Inhibition of PGE2 release in LPS-stimulated RAW 264.7 cells. The assay is classed as cell-based. Conditions: Mus musculus, RAW264.7; pretreated 2 hours, 1 μg/mL LPS 20-24 hours. As to the method: RAW 264.7 cells were seeded at 4×10^4 cells per well in complete growth medium in 96 well white TC plates with clear bottoms one day prior to the assay. The next day the cells were washed once and 100 μL fresh growth media was added. Cells were pretreated with 0.5 μL from a 6 point 200× dilution series of the test compounds in DMSO for 2 hours. Following pretreatment with the drugs, the inflammatory response was induced by adding 5 μL of a 20 μg/mL solution of LPS (Sigma). The cells were incubated in the presence of the drugs and 1 μg/mL LPS for another 20-24 hours. Typically after treatment the total DMSO was […] of the culture volume and the final concentrations of the compounds were approximately: 40, 20, 10, 1, 0.2 and 0 μM depending on the MW of each compound. Modified dilution series were prepared as needed to get adequate dose response curves without changing the % DMSO. Samples were run in duplicate or triplicate and included DMSO treated control wells with and without LPS stimulation. Drugs with a known activity such as Parthenolide or DHMEQ were run as experimental controls. After 20-24 hours LPS activation, the media supernatant was collected from the cells and replaced with fresh media. The supernatant samples were cleared by centrifugation at 1,000×g for 5 minutes, transferred to fresh storage plates, and stored frozen at −30° C.
After determining the appropriate supernatant dilutions experimentally, PGE2 levels in the supernatants were quantified using Parameter™ PGE2 Immunoassay (R&D Systems) according to the manufacturer's protocol. […] Absorbance at 450 nm with a reference at 595 nm was recorded using a Becton-Dickinson DTX 880 Multimode Detector.
The concentration of PGE2 in the unknown samples was determined from a curve-fit of the PGE2 standard absorbance data and multiplying by the dilution factor. […] Inhibition of the amount of PGE2 released in the drug treated wells was calculated relative to the maximum activation in the DMSO+LPS treated control wells (i.e., % inhibition=100−(drug+LPS treated)/(DMSO+LPS treated)). […]

Molecules are shown by their SMILES.

On to `CC(C)CC(=O)Oc1ccccc1C(=O)NC1=CC(=O)C2OC2C1O` (racemic) [Example 1, (±)-2-(2-hydroxy-5-oxo-7-oxabicyclo[4.1.0]hept-3-en-3-ylcarbamoyl)phenyl 3-methylbutanoate], for which the EC50 (as a rule, the concentration that produces a half-maximal response) came out at 1900 nM.
For `CC(C)OC(=O)Oc1ccccc1C(=O)NC1=CC(=O)C2OC2C1OC(=O)OC(C)C` (racemic) [Example 2, (±)-3-(2-isopropoxycarbonyloxy-benzoylamino)-5-oxo-7-oxa-bicyclo[4.1.0]hept-3-en-2-yl ester isopropyl ester] the value was 2700 nM; for `O=C(CC1CCCCC1)Oc1ccccc1C(=O)NC1=CC(=O)C2OC2C1O` (racemic) [Example 3, (±)-2-(2-hydroxy-5-oxo-7-oxabicyclo[4.1.0]hept-3-en-3-ylcarbamoyl)phenyl 2-cyclohexylacetate], 1100 nM.
